Laboratory results: ChEMBL document CHEMBL3885881, “DrugMatrix”

Species on record: Rattus norvegicus
Assay: DrugMatrix - Regimen: Daily Repeat
Format: toxicity, organism-based, Sprague-Dawley
Set-up: regimen Daily Repeat, gender Male, age 6-8 weeks
Conditions: in vivo, po, route oral GAVAGE, vehicle 100 % WATER; for ABSOLUTE BASOPHIL / ABSOLUTE EOSINOPHIL / ABSOLUTE LYMPHOCYTE / ABSOLUTE MONOCYTE / ABSOLUTE SEGMENTED NEUTROPHIL / BASOPHIL / EOSINOPHIL / ERYTHROCYTE COUNT / HEMATOCRIT / HEMOGLOBIN / LEUKOCYTE COUNT / LYMPHOCYTE / MEAN CORPUSCULAR HEMOGLOBIN / MEAN CORPUSCULAR HEMOGLOBIN CONCENTRATION / MEAN CORPUSCULAR VOLUME / MONOCYTE / NEUTROPHIL / NUCLEATED RED BLOOD CELLS / PLATELET COUNT: tissue Blood; for ALANINE AMINOTRANSFERASE / ALBUMIN / ALKALINE PHOSPHATASE / ASPARTATE AMINOTRANSFERASE / BLOOD UREA NITROGEN / CARBON DIOXIDE / CHLORIDE / CHOLESTEROL / CREATINE PHOSPHOKINASE / CREATININE / GLUCOSE / LACTATE DEHYDROGENASE / LIPASE / PHOSPHORUS / POTASSIUM / SODIUM / TOTAL BILIRUBIN / TOTAL PROTEIN / URIC ACID: tissue Plasma
[1] = 20 mg/kg, 72 h, dose level Low, time 3 day
[2] = 20 mg/kg, 120 h, dose level Low, time 5 day
[3] = 688 mg/kg, 72 h, dose level High, time 3 day
[4] = 688 mg/kg, 120 h, dose level High, time 5 day

Structure (SMILES): COc1ccc(CN(CCN(C)C)c2ccccn2)cc1 [PYRILAMINE]
- ABSOLUTE BASOPHIL [1]: 0 CELLS/uL
- ABSOLUTE EOSINOPHIL [1]: 0 CELLS/uL
- ABSOLUTE LYMPHOCYTE [1]: 6764.67 CELLS/uL
- ABSOLUTE MONOCYTE [1]: 0 CELLS/uL
- ABSOLUTE SEGMENTED NEUTROPHIL [1]: 435.33 CELLS/uL
- BASOPHIL [1]: 0%
- EOSINOPHIL [1]: 0%
- ERYTHROCYTE COUNT [1]: 5.22 x10E6/uL
- HEMATOCRIT [1]: 33.7%
- HEMOGLOBIN [1]: 13.67 G/DL
- LEUKOCYTE COUNT [1]: 7.2 x10E3/uL
- LYMPHOCYTE [1]: 93.67%
- MEAN CORPUSCULAR HEMOGLOBIN [1]: 26.2 pg
- MEAN CORPUSCULAR HEMOGLOBIN CONCENTRATION [1]: 40.57 G/DL
- MEAN CORPUSCULAR VOLUME [1]: 64.53 fL
- MONOCYTE [1]: 0%
- NEUTROPHIL [1]: 6.33%
- NUCLEATED RED BLOOD CELLS [1]: 0 /100WBC
- PLATELET COUNT [1]: 1037.67 x10E3/uL
- ALANINE AMINOTRANSFERASE [1]: 45.67 u/L
- ALBUMIN [1]: 4.37 G/DL
- ALKALINE PHOSPHATASE [1]: 340.33 u/L
- ASPARTATE AMINOTRANSFERASE [1]: 91.33 u/L
- BLOOD UREA NITROGEN [1]: 16.67 mg/dL
- CARBON DIOXIDE [1]: 33.67 mmol/L
- CHLORIDE [1]: 98.33 MEQ/L
- CHOLESTEROL [1]: 83 mg/dL
- CREATINE PHOSPHOKINASE [1]: 408.33 u/L
- CREATININE [1]: 0.23 mg/dL
- GLUCOSE [1]: 112.67 mg/dL
- LACTATE DEHYDROGENASE [1]: 148.67 u/L
- LIPASE [1]: 10.33 u/L
- PHOSPHORUS [1]: 11.07 mg/dL
- POTASSIUM [1]: 6.81 MEQ/L
- SODIUM [1]: 145.13 MEQ/L
- TOTAL BILIRUBIN [1]: 0.2 mg/dL
- TOTAL PROTEIN [1]: 6.37 G/DL
- URIC ACID [1]: 0.83 mg/dL
- ABSOLUTE BASOPHIL [2]: 0 CELLS/uL
- ABSOLUTE EOSINOPHIL [2]: 0 CELLS/uL
- ABSOLUTE LYMPHOCYTE [2]: 14373.33 CELLS/uL
- ABSOLUTE MONOCYTE [2]: 89.33 CELLS/uL
- ABSOLUTE SEGMENTED NEUTROPHIL [2]: 1937.33 CELLS/uL
- BASOPHIL [2]: 0%
- EOSINOPHIL [2]: 0%
- ERYTHROCYTE COUNT [2]: 5.38 x10E6/uL
- HEMATOCRIT [2]: 33.67%
- HEMOGLOBIN [2]: 13.67 G/DL
- LEUKOCYTE COUNT [2]: 16.4 x10E3/uL
- LYMPHOCYTE [2]: 88.33%
- MEAN CORPUSCULAR HEMOGLOBIN [2]: 25.47 pg
- MEAN CORPUSCULAR HEMOGLOBIN CONCENTRATION [2]: 40.63 G/DL
- MEAN CORPUSCULAR VOLUME [2]: 62.73 fL
- MONOCYTE [2]: 0.67%
- NEUTROPHIL [2]: 11%
- NUCLEATED RED BLOOD CELLS [2]: 0 /100WBC
- PLATELET COUNT [2]: 1183.67 x10E3/uL
- ALANINE AMINOTRANSFERASE [2]: 53.33 u/L
- ALBUMIN [2]: 4.13 G/DL
- ALKALINE PHOSPHATASE [2]: 437.33 u/L
- ASPARTATE AMINOTRANSFERASE [2]: 80.67 u/L
- BLOOD UREA NITROGEN [2]: 17 mg/dL
- CARBON DIOXIDE [2]: 28.67 mmol/L
- CHLORIDE [2]: 104.67 MEQ/L
- CHOLESTEROL [2]: 64.33 mg/dL
- CREATINE PHOSPHOKINASE [2]: 242 u/L
- CREATININE [2]: 0.17 mg/dL
- GLUCOSE [2]: 160 mg/dL
- LACTATE DEHYDROGENASE [2]: 86.33 u/L
- LIPASE [2]: 8.67 u/L
- PHOSPHORUS [2]: 14.2 mg/dL
- POTASSIUM [2]: 6.63 MEQ/L
- SODIUM [2]: 147.07 MEQ/L
- TOTAL BILIRUBIN [2]: 0.17 mg/dL
- TOTAL PROTEIN [2]: 6 G/DL
- URIC ACID [2]: 1.7 mg/dL
- ABSOLUTE BASOPHIL [3]: 0 CELLS/uL
- ABSOLUTE EOSINOPHIL [3]: 0 CELLS/uL
- ABSOLUTE LYMPHOCYTE [3]: 13165.67 CELLS/uL
- ABSOLUTE MONOCYTE [3]: 0 CELLS/uL
- ABSOLUTE SEGMENTED NEUTROPHIL [3]: 1201 CELLS/uL
- BASOPHIL [3]: 0%
- EOSINOPHIL [3]: 0%
- ERYTHROCYTE COUNT [3]: 5.73 x10E6/uL
- HEMATOCRIT [3]: 34.93%
- HEMOGLOBIN [3]: 14.1 G/DL
- LEUKOCYTE COUNT [3]: 14.37 x10E3/uL
- LYMPHOCYTE [3]: 91.67%
- MEAN CORPUSCULAR HEMOGLOBIN [3]: 24.63 pg
- MEAN CORPUSCULAR HEMOGLOBIN CONCENTRATION [3]: 40.37 G/DL
- MEAN CORPUSCULAR VOLUME [3]: 61.07 fL
- MONOCYTE [3]: 0%
- NEUTROPHIL [3]: 8.33%
- NUCLEATED RED BLOOD CELLS [3]: 0 /100WBC
- PLATELET COUNT [3]: 1288.33 x10E3/uL
- ALANINE AMINOTRANSFERASE [3]: 50.67 u/L
- ALBUMIN [3]: 4.27 G/DL
- ALKALINE PHOSPHATASE [3]: 466 u/L
- ASPARTATE AMINOTRANSFERASE [3]: 87.67 u/L
- BLOOD UREA NITROGEN [3]: 12.33 mg/dL
- CARBON DIOXIDE [3]: 34 mmol/L
- CHLORIDE [3]: 100.67 MEQ/L
- CHOLESTEROL [3]: 65.67 mg/dL
- CREATINE PHOSPHOKINASE [3]: 183.33 u/L
- CREATININE [3]: 0.13 mg/dL
- GLUCOSE [3]: 155.33 mg/dL
- LACTATE DEHYDROGENASE [3]: 142 u/L
- LIPASE [3]: 9 u/L
- PHOSPHORUS [3]: 13.33 mg/dL
- POTASSIUM [3]: 6.65 MEQ/L
- SODIUM [3]: 145.23 MEQ/L
- TOTAL BILIRUBIN [3]: 0.1 mg/dL
- TOTAL PROTEIN [3]: 5.8 G/DL
- URIC ACID [3]: 1.7 mg/dL
- ABSOLUTE BASOPHIL [4]: 0 CELLS/uL
- ABSOLUTE EOSINOPHIL [4]: 82 CELLS/uL
- ABSOLUTE LYMPHOCYTE [4]: 13712.5 CELLS/uL
- ABSOLUTE MONOCYTE [4]: 237 CELLS/uL
- ABSOLUTE SEGMENTED NEUTROPHIL [4]: 1918.5 CELLS/uL
- BASOPHIL [4]: 0%
- EOSINOPHIL [4]: 0.5%
- ERYTHROCYTE COUNT [4]: 6.11 x10E6/uL
- HEMATOCRIT [4]: 37.55%
- HEMOGLOBIN [4]: 14.85 G/DL
- LEUKOCYTE COUNT [4]: 15.95 x10E3/uL
- LYMPHOCYTE [4]: 86%
- MEAN CORPUSCULAR HEMOGLOBIN [4]: 24.3 pg
- MEAN CORPUSCULAR HEMOGLOBIN CONCENTRATION [4]: 39.6 G/DL
- MEAN CORPUSCULAR VOLUME [4]: 61.35 fL
- MONOCYTE [4]: 1.5%
- NEUTROPHIL [4]: 12%
- NUCLEATED RED BLOOD CELLS [4]: 0 /100WBC
- PLATELET COUNT [4]: 1201.5 x10E3/uL
- ALANINE AMINOTRANSFERASE [4]: 60.5 u/L
- ALBUMIN [4]: 4.45 G/DL
- ALKALINE PHOSPHATASE [4]: 346.5 u/L
- ASPARTATE AMINOTRANSFERASE [4]: 96 u/L
- BLOOD UREA NITROGEN [4]: 14.5 mg/dL
- CARBON DIOXIDE [4]: 35.5 mmol/L
- CHLORIDE [4]: 99 MEQ/L
- CHOLESTEROL [4]: 60 mg/dL
- CREATINE PHOSPHOKINASE [4]: 292 u/L
- CREATININE [4]: 0.24 mg/dL
- GLUCOSE [4]: 142 mg/dL
- LACTATE DEHYDROGENASE [4]: 333.5 u/L
- LIPASE [4]: 11 u/L
- PHOSPHORUS [4]: 13.2 mg/dL
- POTASSIUM [4]: 6.7 MEQ/L
- SODIUM [4]: 146.5 MEQ/L
- TOTAL BILIRUBIN [4]: 0.15 mg/dL
- TOTAL PROTEIN [4]: 6 G/DL
- URIC ACID [4]: 2 mg/dL
